Calls of active or inactive are those of the source. No cut-off for these calls is given here.
Legend:
[1] = biological target: Neuronal acetylcholine receptor; alpha3/beta4 (Homo sapiens) (UniProt P30926+P32297); experiment: Intrinsic activity at alpha3beta4 nAChR receptor in human SH-SY5Y cells assessed as 86Rb+ efflux at 5 to 100 uM by liquid scintillation counting; format: cell-based
[2] = biological target: Sodium-dependent noradrenaline transporter (Homo sapiens, UniProt P23975); experiment: Inhibition of [3H]norepinephrine uptake at human NET expressed in HEK293 cells; format: cell-based
[3] = biological target: Sodium-dependent serotonin transporter (Homo sapiens, UniProt P31645); experiment: Inhibition of [3H]serotonin uptake at human SERT expressed in HEK293 cells; format: cell-based
[4] = biological target: Acetylcholine receptor; alpha1/beta1/delta/gamma (Homo sapiens) (UniProt P02708+P07510+P11230+Q07001); experiment: Intrinsic activity at alpha-1-beta-1-gamma-delta nAChR receptor expressed in human TE671/RD cells assessed as 86Rb+ efflux at 5 to 100 uM by liquid scintillation counting; format: cell-based
[5] = organism: Mus musculus; experiment: Effect on behavioral activity in ICR mouse assessed as inhibition of nicotine-induced locomotory response by locomotor assay; format: functional
[6] = organism: Mus musculus; experiment: Antinociceptive activity in ICR mouse assessed as inhibition of nicotine-induced response by hotplate test; format: functional
[7] = organism: Mus musculus; experiment: Antinociceptive activity in ICR mouse D'Amour and Smith model of pain assessed as inhibition of nicotine-induced response by tail-flick test; format: functional
[8] = biological target: Sodium-dependent dopamine transporter (Homo sapiens, UniProt Q01959); experiment: Inhibition of [3H]dopamine uptake at human DAT expressed in HEK293 cells; format: cell-based
[9] = biological target: Neuronal acetylcholine receptor; alpha4/beta4 (Homo sapiens) (UniProt P30926+P43681); experiment: Intrinsic activity at human alpha4beta4 nAChR receptor expressed in human SH-SY5Y cells assessed as 86Rb+ efflux at 5 to 100 uM by liquid scintillation counting; format: cell-based
[10] = organism: Mus musculus; experiment: Effect on body temperature in ICR mouse assessed as inhibition of nicotine-induced hypothermic response; format: functional
[11] = biological target: Neuronal acetylcholine receptor; alpha4/beta2 (Homo sapiens) (UniProt P17787+P43681); experiment: Intrinsic activity at human alpha4beta2 nAChR receptor expressed in human SH-SY5Y cells assessed as 86Rb+ efflux at 5 to 100 uM by liquid scintillation counting; format: cell-based

Sodium-dependent noradrenaline transporter, sequence (P23975 whole entry): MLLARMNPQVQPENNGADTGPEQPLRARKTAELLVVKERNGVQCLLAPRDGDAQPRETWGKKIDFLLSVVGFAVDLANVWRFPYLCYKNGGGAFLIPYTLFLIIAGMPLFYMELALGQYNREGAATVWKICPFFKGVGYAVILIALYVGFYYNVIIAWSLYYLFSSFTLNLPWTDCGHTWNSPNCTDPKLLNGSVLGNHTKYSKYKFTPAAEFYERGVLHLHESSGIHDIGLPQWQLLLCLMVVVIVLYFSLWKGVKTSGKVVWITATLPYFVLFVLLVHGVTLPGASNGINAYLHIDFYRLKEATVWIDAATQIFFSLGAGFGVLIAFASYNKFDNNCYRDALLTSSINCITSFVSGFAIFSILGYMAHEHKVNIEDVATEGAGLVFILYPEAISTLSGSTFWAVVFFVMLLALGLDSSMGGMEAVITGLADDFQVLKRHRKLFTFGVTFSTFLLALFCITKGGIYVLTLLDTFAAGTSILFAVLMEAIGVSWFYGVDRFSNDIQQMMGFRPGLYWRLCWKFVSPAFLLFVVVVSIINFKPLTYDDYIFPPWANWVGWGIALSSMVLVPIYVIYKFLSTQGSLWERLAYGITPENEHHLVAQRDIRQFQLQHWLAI
Sodium-dependent dopamine transporter, sequence (Q01959 whole entry): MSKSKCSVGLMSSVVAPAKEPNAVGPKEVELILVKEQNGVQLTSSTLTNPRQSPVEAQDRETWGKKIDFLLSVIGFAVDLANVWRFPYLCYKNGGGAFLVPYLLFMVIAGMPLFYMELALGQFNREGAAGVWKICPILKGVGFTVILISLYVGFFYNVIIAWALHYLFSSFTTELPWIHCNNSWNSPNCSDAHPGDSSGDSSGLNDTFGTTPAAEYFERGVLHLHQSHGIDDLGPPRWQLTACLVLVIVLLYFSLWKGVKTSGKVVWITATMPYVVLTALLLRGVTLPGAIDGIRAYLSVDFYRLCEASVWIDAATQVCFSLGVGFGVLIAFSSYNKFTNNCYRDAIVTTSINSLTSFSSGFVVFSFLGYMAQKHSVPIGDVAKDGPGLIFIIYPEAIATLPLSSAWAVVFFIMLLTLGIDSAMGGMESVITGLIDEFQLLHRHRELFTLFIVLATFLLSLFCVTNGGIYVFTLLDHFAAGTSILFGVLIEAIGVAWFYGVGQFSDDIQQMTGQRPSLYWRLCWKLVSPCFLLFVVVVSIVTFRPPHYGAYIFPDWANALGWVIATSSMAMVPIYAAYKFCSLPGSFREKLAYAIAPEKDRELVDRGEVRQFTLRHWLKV
Sodium-dependent serotonin transporter, sequence (P31645 whole entry): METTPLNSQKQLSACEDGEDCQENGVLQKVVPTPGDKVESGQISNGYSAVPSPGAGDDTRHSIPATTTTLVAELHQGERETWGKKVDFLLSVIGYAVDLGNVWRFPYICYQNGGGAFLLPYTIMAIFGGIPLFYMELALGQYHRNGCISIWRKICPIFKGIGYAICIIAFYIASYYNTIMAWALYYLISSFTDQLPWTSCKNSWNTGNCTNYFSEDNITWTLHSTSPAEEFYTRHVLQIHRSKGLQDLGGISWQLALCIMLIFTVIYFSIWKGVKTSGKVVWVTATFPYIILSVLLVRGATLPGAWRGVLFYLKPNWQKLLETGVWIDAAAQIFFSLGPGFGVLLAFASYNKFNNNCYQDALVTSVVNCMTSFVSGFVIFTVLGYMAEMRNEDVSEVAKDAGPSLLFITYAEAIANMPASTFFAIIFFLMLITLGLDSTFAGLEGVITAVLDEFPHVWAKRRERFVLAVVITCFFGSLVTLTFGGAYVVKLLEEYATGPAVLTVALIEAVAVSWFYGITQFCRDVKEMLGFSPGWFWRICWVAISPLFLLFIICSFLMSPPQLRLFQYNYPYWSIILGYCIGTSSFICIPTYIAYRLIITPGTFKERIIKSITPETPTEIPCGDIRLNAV

Row | Structure (SMILES) | Activity [1] | IC50 [2] | IC50 [3] | Activity [4] | AD50 [5] | AD50 [6] | AD50 [7] | IC50 [8] | Activity [9] | AD50 [10] | Activity [11]
1 | COc1cccc(C(=O)C(C)NC2CCCC2)c1 (centres undefined) | inactive | 8200 nM | 6900 nM | inactive | inactive | inactive | inactive | 2270 nM | inactive | inactive | inactive
2 | CCC(NC(C)(C)C)C(=O)c1ccc(Cl)c(Cl)c1 (centres undefined) | inactive | 389 nM | 1090 nM | inactive | inactive | inactive | 0.05 mg/kg | 118 nM | inactive | inactive | inactive
3 | CC(NC(C)(C)C)C(=O)c1ccc(Cl)cc1 (centres undefined) | inactive | 2070 nM | 9800 nM | inactive | 31 mg/kg | inactive | 0.43 mg/kg | 1090 nM | inactive | 32 mg/kg | inactive
4 | CC(NC(C)(C)C)C(=O)c1ccc(Br)cc1 (centres undefined) | inactive | 2540 nM | 4510 nM | inactive | inactive | 23.5 mg/kg | 0.15 mg/kg | 689 nM | inactive | 29 mg/kg | inactive

From ChEMBL document CHEMBL1157604 (J Med Chem, 2010)
